What was measured:
[1] = system: primary CD138+ myeloma cells; details: compared with Example 1; Trudel et al. ASH 2009; cited from earlier work
KMS-11 = assay: Cell viability assay (MTS); assay type: cell-based; details: Homo sapiens, 72 hours, mean ± standard deviation
Procedure: (§1) Human multiple myeloma cell lines 8226, H929, JJN3, KMH11, KMS11, KMS18, LP1, MM1S, OPM2 and U266 were grown in Iscove modified Dulbecco's medium (IMDM). Human leukemia cell lines K562, OCI-AML2 and U937 were cultured in RPMI-1640 medium. Primary peripheral blood mononuclear cells were isolated from multiple myeloma patients by Ficoll density gradient centrifugation and bone marrow aspirates were obtained from multiple myeloma patients at the Princess Margaret Cancer Centre of the University Health Network (UHN; Toronto, ON, Canada). Primary cells were cultured in IMDM. The collection and use of human tissue for this study were approved by the UHN institutional ethics review board. All cell culture media were obtained from the Ontario Cancer Institute Tissue Culture Media Facility (Toronto, ON, Canada) and were supplemented with 10% fetal calf serum, […] (Hyclone, Logan, Utah). All cells were grown in a humidified incubator at 37° C. with 5% CO2.
(§2) Cellular viability was primarily assessed by 3-(4,5-dimethylthiazol-2-yl)-5-(3-carboxymethoxyphenyl)-2-(4-sulfophenyl)-2H-tetrazolium (MTS) assay according to the manufacturer's instructions (Promega; Madison, Wis.). Cells were first seeded at a density of 10,000 cells per well in tissue culture-treated 96-well plates. Two hours after seeding, cells were treated with compounds for 72 hours at concentrations as indicated. As a control, cells were treated with DMSO alone in every assay plate. Following treatment and the MTS assay, cell viability was independently confirmed by reading the optical density (O.D.) at 490 nm and by exclusion of trypan blue stain (Invitrogen; Burlington, ON, Canada). The viability of primary mononuclear cells was determined by staining with Annexin V.
(§3) Table 9 summarizes data obtained for representative compounds of Formula I for cell viability and CT-L proteasome activity using OCI-AML-2 and KMS-11 cell lines.

OCI-AML-2 = assay: Cell viability assay (MTS); assay type: cell-based; details: Homo sapiens, OCI-AML2, 72 hours, mean ± standard deviation
Procedure: as §1, §2, §3

[2] = system: chymotrypsin-like (CT-L) proteasome activity, KMS-11; assay: Proteasome enzymatic activity (tumor cell lysates); assay type: biochemical, human; details: KMS-11 cell lysate; mean ± standard deviation
Procedure: (§4) Cells were harvested by centrifugation at 1,200 rpm at room temperature. Cell pellets were washed with PBS and lysed with assay lysis buffer (50 mM HEPES (N-2-hydroxyethylpiperazine-N′-2-ethanesulfonic acid), pH 7.5; 150 mM NaCl; 1% Triton X-100; 2 mM ATP). Cell lysates were incubated on ice for 30 minutes, mixed by vortex every 5 minutes, and then centrifuged at 12,000 g for 10 minutes. The supernatant was transferred to a 96-well plate. For each assay, 10 μg of total protein were incubated for 1 hour at 37° C. with increasing concentrations (1 nM to 10 μM) of test compound diluted in assay buffer (50 mM Tris-HCl (tris(hydroxymethyl)aminomethane-HCl), pH 7.5; 150 mM NaCl). DMSO alone was used as a control in every assay plate. After incubation, a specific fluorogenic proteasome substrate was added to each assay reaction at a final concentration of 40 μM in a total volume of 100 μL. N-Succinyl-Leu-Leu-Val-Tyr-7-amino-4-methylcoumarin (Suc-Leu-Leu-Val-Tyr-AMC) was used for measuring chymotrypsin-like (CT-L) activity, t-butoxycarbonyl-Leu-Arg-Arg-7-amino-4-methylcoumarin (Boc-Leu-Arg-Arg-AMC) for trypsin-like (T-L) activity, and benzyloxycarbonyl-L-leucyl-L-leucyl-L-glutamyl-7-amino-4-methylcoumarin (Z-Leu-Leu-Glu-AMC) for caspase-like (C-L) activity. The excitation wavelength was set at 360 nm and the fluorescence emission wavelength of AMC was detected at 460 nm. The fluorescence of free AMC released during the enzymatic reaction was measured with a SpectraMax M5 fluorescent spectrophotometric plate reader (Molecular Devices, Sunnyvale, Calif.). AMC release rate was measured at 37° C. in a kinetic mode, recording every 5 minutes for 30 minutes. Experiments were performed in triplicate and repeated at least twice.
as §3

[3] = system: chymotrypsin-like (CT-L) proteasome activity, OCI-AML-2; assay: Proteasome enzymatic activity (tumor cell lysates); assay type: biochemical, human; details: OCI-AML-2 cell lysate; mean ± standard deviation
Procedure: as §4, §3

IC50 (OCI-AML-2) | IC50 [2] | IC50 [3] | Structure (SMILES) | therapeutic index between CD138+ and CD-138− in patient samples [1] | IC50 (KMS-11)
– | – | – | CC(C)C[C@H](NC(=O)[C@H](CCc1ccccc1)NC(=O)CN1CCOCC1)C(=O)N[C@@H](Cc1ccccc1)C(=O)N[C@@H](CC(C)C)C(=O)[C@@]1(C)CO1 [carfilzomib] | much narrower therapeutic index | –
140 ± 53.5 nM | 704 ± 173 nM | 599 ± 77.7 nM | CC(C)C[C@H](NC(=O)[C@H](COC(F)F)NC(=O)[C@H](COC(F)F)NC(=O)CN1CCOCC1)C(=O)[C@@]1(C)CO1 [Example 33, (2S)-3-(difluoromethoxy)-N-[(1S)-1-(difluoromethoxymethyl)-2-[[(1S)-3-methyl-1-[(2R)-2-methyloxirane-2-carbonyl]butyl]amino]-2-oxo-ethyl]-2-[(2-morpholinoacetyl)amino]propanamide] | – | 46.7 ± 9.89 nM
401 ± 275 nM | 742 ± 83.7 nM | 600 ± 57.5 nM | CC(C)C[C@H](NC(=O)[C@H](COC(F)F)NC(=O)CN1CCOCC1)C(=O)N[C@@H](Cc1ccccc1)C(=O)[C@@]1(C)CO1 [Example 27, (2S)-N-[(1S)-1-benzyl-2-[(2R)-2-methyloxiran-2-yl]-2-oxo-ethyl]-2-[[(2S)-3-(difluoromethoxy)-2-[(2-morpholinoacetyl)amino]propanoyl]amino]-4-methylpentanamide] | – | 250 ± 25.9 nM
132 ± 87.5 nM | 575 ± 62.7 nM | 556 ± 123 nM | CC(C)C[C@H](NC(=O)[C@H](COC(F)F)NC(=O)CN1CCOCC1)C(=O)N[C@@H](CC(C)C)C(=O)[C@@]1(C)CO1 [Example 28, (2S)-2-[[(2S)-3-(difluoromethoxy)-2-[(2-morpholino-acetyl)amino]propa-noyl]amino]-4-methyl-N-[(1S)-3-methyl-1-[(2R)-2-methyloxirane-2-carbonyl]butyl]pentanamide] | – | 100 ± 18.7 nM

From patent US9441012B2, “Fluorinated epoxyketone-based compounds and uses thereof as proteasome inhibitors” (FLUORINOV PHARMA INC., priority 2012, dated 2016)
